Experiments:
neuroblastoma cells = assay: Protection from MPP+ induced oxidative stress, CellTiter-Glo viability; format: cell-based; details: for protection from MPP+ induced apoptosis / damage: 0.1-1000 μM, 12 h
Experimental: Several in-vivo and in-vitro studies find that MPP+ exerts oxidative stress on cells^22. MPP+×toxicity is based on its uptake into dopaminergic neurons. MPP+ accumulate into the mitochondria, inhibiting the complex-I leading to ATP depletion, increased reactive oxygen species (ROS) production, and apoptotic cell death^23. 12 h following MPP+ treatment and SCA-744 and CAL-X incubation, cell viability was assessed using a standard ATP method, CellTiter-Glo® Luminescent Cell Viability Assay.

[1] = Cytotoxicity, CellTiter-Glo cell viability; format: cell-based; details: human, HEK 293 cells (printed as HEK 293 neuroblastoma cell lines), 72 h treatment, read-out: EC50 cytotoxicity (cell viability, ATP)
Experimental: FIG. 19.: In-vitro assessment of SCA-744 (A) and SCA-754 (B) cytotoxicity. Experiments were performed using HEK 293 […] cell lines. The effect of SCA-744 and SCA-754 on cell viability was assessed using a standard ATP, CellTiter-Glo® Luminescent Cell Viability Assay following 72 hours treatment.
In vitro assessment of cytotoxicity of SCA-744 and SCA-754 in mammalian cells. 72 h following SCA-744 and SCA-754-treatment, cell viability was assessed using a standard ATP method, CellTiter-Glo® Luminescent Cell Viability Assay.

[2] = tested on: THP-1 human monocytic cell line; assay: LPS-stimulated THP-1 macrophage cytokine production (LEGENDplex); format: cell-based; details: 10 ng/ml LPS; 30 and 150 μM; FIG. 3
Experimental: A specific anti-inflammatory effect or activity of a compound is proven, if the compound can decrease the production of one of IL-1B, IL-6 and TNFα in human THP1 macrophages following LPS stimulation, as determined by a standard assay: THP-1 human monocytic cell lines are treated with 100 nM of Phorbol 12-myristate 13-acetate (PMA) for 48 h to induce mature macrophage-like state. Cells are then stimulated with 100 ng/ml of LPS in the absence and presence of 500 μM of compound. After 6 hours, supernatants of treated and untreated cells are collected, and cytokine levels determined using the Human Inflammatory panel LEGENDplex Human Pro-inflammatory Chemokine Panel (Cat. No. 740118). A positive result is considered if the compound is capable of reduce or block the production of IL-1β, IL-6, and TNFα in human THP1 macrophages after LPS stimulation.
Following cells were treated with [10 ng/ml] LPS in the absence and presence 10, 100 and 500 μM of SCA-744. Cytokine levels were determined by LEGENDplex™ Human Inflammation Panel assay from BioLegend. The bar heights represent the concentration means compared to LPS alone of 3 independent experiments carried out in triplicates.
Cells were treated with 100 nM of Phorbol 12-myristate 13-acetate (PMA) for 48 h to induce mature macrophage-like state. Cells were then stimulated with 100 ng/ml of Lipopolysaccharides (LPS) in the absence and presence of 500 μM of SCA-744. After 6 hours, supernatants of treated and untreated cells were collected and the levels of three major pro-inflammatory cytokines TNF-α, IL-6 and IL-1ß were determined using the Human Inflammatory panel of LEGENDPLEX Multi-Analyte Flow assay.

Osteopontin (OPN) = assay: 15N-1H HSQC NMR binding to osteopontin; details: HS compared with SCA-744
Experimental: In order to verify the predicted heparan sulfate mimicking activity of SCA-744, its physical interaction was probed with a prototypical HS-binding protein Osteopontin (OPN), a component of the extracellular matrix (ECM). To this end, NMR spectroscopy was used to directly probe the interaction and map the location of the interaction site along the protein backbone. The experimental strategy was as follows: First, ^15N-labelled OPN was prepared following well-established molecular biology technology techniques. Individual residue positions are directly monitored via the so-called ^15N-^1H Heteronuclear Single-Quantum Coherence (HSQC) spectroscopy, where individual cross peaks in the two-dimensional (2D) frequency spectrum corresponds to individual residue positions (amino acids) of the protein. Ligand binding changes the chemical environment of residues located in the binding site and leads to a change in the HSQC spectrum. Since the signal assignment is available, the residue positions which are affected by ligand binding can easily be identified by comparing HSQC spectra of the apo (ligand-free) and ligand-bound state of the protein (FIG. 7A). […] It is very convenient to analyze the chemical shift changes (induced by ligand binding) as a function of residue positions (FIG. 7B,C). Residues that display the largest chemical shift changes are typically part of the binding interface. […] Therefore, it can be concluded that SCA-744 and HS share the same ligand interaction sites and therefore are in competition for binding.

| binding sites on OPN (chemical shift changes by residue) (Osteopontin (OPN)) | Molecule | MPP+ protection relative to SCA-744 (neuroblastoma cells; 0.2 μM versus 1 μM) [× times] | protection from MPP+ induced apoptosis / damage (neuroblastoma cells) | protection from MPP+ induced apoptosis / damage (neuroblastoma cells; listed as CAL-X) | concentration for MPP+ protection (neuroblastoma cells; 12 h following MPP+ treatment, CellTiter-Glo) [µM] | EC50 at 72 h [1] [mM] | inhibition of LPS-induced TNF-α, IL-ß and IL-6 [2] |
| --- | --- | --- | --- | --- | --- | --- | --- |
| – | Cc1cc2c(O)c(c1)Cc1cc(S(=O)(=O)O)cc(c1O)Cc1cc(S(=O)(=O)O)cc(c1O)Cc1cc(S(=O)(=O)O)cc(c1O)C2 [SCA-754, Trisodium 25,26,27,28-tetrahydroxycalix(4)arene-23-methyl-5,11,17-trisulfonate] | 5 | protects against oxidative stress from MPP+ induced damage | protected neuroblastoma cells from MPP+ induced apoptosis | 0.2 | 1 | Dose-dependent inhibition |
| overlapping binding sites | heparan sulfate [HS, reference compound] | – | – | – | – | – | – |
